{"source": "patent US11484512B2", "about": "“Nanoparticles formed of a polymer and terbinafine” (Blueberry Therapeutics Limited, priority 2017, dated 2022)", "key": {"[1]": {"tested_on": "T. mentagrophytes", "assay": "Trychophyton mentagrophytes anti-fungal paper disc lawn assay", "type": "cell-based", "conditions": "5 days incubation", "method": "FIGS. 6A-6E are photographic images of yeast extract peptone dextrose (YEPD) agar plates with Trychophyton mentagrophytes after incubation for 4 days at 30° C. […] 40 μl of double distilled water or terbinafine solution of varying concentration was spotted onto each paper disc. The concentration of the terbinafine solutions used were: 0 μg/ml (control, FIG. 6A), 0.06 μg/ml (FIG. 6B), 0.6 μg/ml (FIG. 6C), 6.00 μg/ml (FIG. 6D) and 60.0 μg/ml (FIG. 6E); FIGS. 7A and 7B are photographic images of YEPD plates assessing the efficacy of BB2603 (terbinafine and PHMB nanoparticles) and terbinafine samples passing through healthy human nail against Trychophyton mentagrophytes A lawn of Trychophyton mentagrophytes was spread onto YEPD agar plates supplemented with 50 μg/ml chloramphenicol. The aqueous samples from the Franz cell collection chamber following 7 days treatment of healthy human nails with either 0.1 mg/ml terbinafine (FIG. 7A) or BB2603 (FIG. 7B) were spotted onto 10 mm paper discs. The discs were placed in the middle of the Trychophyton plates, which were then incubated at 30° C. for 5 days to allow the fungi to grow. […]"}, "[2]": {"tested_on": "Trichophyron terestre", "conditions": "1 strain tested; cited from earlier work"}, "[3]": {"tested_on": "Trichophron verrucosum", "conditions": "17 strains tested; cited from earlier work"}, "[4]": {"tested_on": "Epidermophyton floccosum", "conditions": "42 strains tested; cited from earlier work"}, "[5]": {"conditions": "cited from earlier work"}, "[6]": {"tested_on": "Microsporum species", "conditions": "25 strains tested; cited from earlier work"}, "[7]": {"assay": "Franz cell nail penetration, single dose (constant exposure)", "type": "in vitro ADME, human", "method": "Nail clippings were soaked in water overnight at 30° C. and dried briefly. A 3 mm diameter punch was used to take disc biopsies of the nail clippings. Each nail disc was added to a Franz cell and an upper chamber of the cell attached. 40 μl of the following formulations was added to the upper chambers: 0.3 mg/ml PHMB+0.1 mg/ml terbinafine; or 10 mg/ml terbinafine. Lower collection chambers of the Franz cells were filled with water (approximately 600 μl) and the hole in the base of the sample chamber also filled with ddH2O to prevent bubbles forming beneath the nail. The upper sample chamber was carefully placed into the collection chamber ensuring not to introduce any air bubbles. Excess liquid from the collection chamber was expelled at this point leaving a final volume of liquid in the lower chamber of 500 μl. […] The nail discs from the Franz cell were also analysed for the presence of terbinafine as follows: the remaining test sample was removed from the upper sample chamber and discarded and the sample chamber washed 5 times with 100 μl ddH2O, with each wash being discarded, in order to remove any residual test solution remaining in the sample chamber. […] After 7 days, samples from the underside of the nail (ethanol washes) were collected and analysed by LC-MS/MS. […] Levels of terbinafine were quantified against drug standards. […]"}, "[8]": {"tested_on": "Trichophyton rubrum", "conditions": "72 strains tested; cited from earlier work"}, "[9]": {"tested_on": "Trichophron mentagrophytes", "conditions": "cited from earlier work"}, "[10]": {"tested_on": "Trichophyton species", "conditions": "27 strains tested; cited from earlier work"}, "[11]": {"tested_on": "Trichophyton interdigitale", "conditions": "11 strains tested; cited from earlier work"}, "[12]": {"tested_on": "Microsporum canis", "conditions": "49 strains tested; cited from earlier work"}, "[13]": {"tested_on": "onychomycosis", "conditions": "following 3-6 months of dosing, oral; cited from earlier work"}}, "note": "Like-named read-outs stand apart in the source and are kept apart here."}
{"compound": "CN(C/C=C/C#CC(C)(C)C)Cc1cccc2ccccc12", "note": "[terbinafine]", "values": [{"measurement": "MIC", "setting": "[1]; Trichophyton mentagrophytes, 120 h, 30° C.", "value": 600, "unit": "ng/mL"}, {"measurement": "zone of clearance with Franz cell aqueous sample passed through nail", "setting": "[1]; collection chamber sample after 7 days nail treatment", "value": "no effect"}, {"measurement": "MIC range", "setting": "[2]", "value": 2, "unit": "ng/mL"}, {"measurement": "MIC range", "setting": "[3]", "value": "1 to 6", "unit": "ng/mL"}, {"measurement": "MIC range", "setting": "[4]", "value": "1 to 47", "unit": "ng/mL"}, {"measurement": "concentration in nails following oral dosing", "setting": "[5]; after 3 weeks", "value": "about 0.25 μg/g"}, {"measurement": "concentration in nails following oral dosing", "setting": "[5]; after 18 months", "value": 0.55, "unit": "µg/g"}, {"measurement": "concentration in nails following oral dosing", "setting": "[5]; after 7 days treatment", "value": 0.1, "unit": "µg/g"}, {"measurement": "MIC range", "setting": "[6]", "value": "2 to 70", "unit": "ng/mL"}, {"measurement": "concentration of terbinafine in ethanol washes of the underside of the nail", "setting": "[7]; 0.1 mg/ml, 30% (v/v) ethanol, 7 days, single dose, BB2603 value is median", "value": "< 0.1", "unit": "ng/mL"}, {"measurement": "median concentration of drug in dissolved nails", "setting": "[7]; after 7 days, FIGS. 4 and 5A-5B", "value": "approximately 0.5 mg/g"}, {"measurement": "MIC range", "setting": "[8]", "value": "1 to 38", "unit": "ng/mL"}, {"measurement": "MIC range", "setting": "[9]; 32 strains tested", "value": "1 to 6", "unit": "ng/mL"}, {"measurement": "previously reported MIC", "setting": "[9]; liquid MIC assay", "value": 6, "unit": "ng/mL"}, {"measurement": "MIC range", "setting": "[10]", "value": "≤60", "unit": "ng/mL"}, {"measurement": "MIC range", "setting": "[11]", "value": "2 to 28", "unit": "ng/mL"}, {"measurement": "MIC range", "setting": "[12]", "value": "6 to 80", "unit": "ng/mL"}, {"measurement": "cure", "setting": "[13]", "value": "> 80", "unit": "%"}]}
